{"source": "patent US20210161855A1", "about": "“5-LIPOXYGENASE ANTAGONISTS” (INSTITUTO DE MEDICINA MOLECULAR JOÃO LOBO ANTUNES, priority 2017, published 2021)", "key": {"EP4": {"target": "EP4 (Homo sapiens, UniProt P35408)", "sequence (P35408 whole entry)": "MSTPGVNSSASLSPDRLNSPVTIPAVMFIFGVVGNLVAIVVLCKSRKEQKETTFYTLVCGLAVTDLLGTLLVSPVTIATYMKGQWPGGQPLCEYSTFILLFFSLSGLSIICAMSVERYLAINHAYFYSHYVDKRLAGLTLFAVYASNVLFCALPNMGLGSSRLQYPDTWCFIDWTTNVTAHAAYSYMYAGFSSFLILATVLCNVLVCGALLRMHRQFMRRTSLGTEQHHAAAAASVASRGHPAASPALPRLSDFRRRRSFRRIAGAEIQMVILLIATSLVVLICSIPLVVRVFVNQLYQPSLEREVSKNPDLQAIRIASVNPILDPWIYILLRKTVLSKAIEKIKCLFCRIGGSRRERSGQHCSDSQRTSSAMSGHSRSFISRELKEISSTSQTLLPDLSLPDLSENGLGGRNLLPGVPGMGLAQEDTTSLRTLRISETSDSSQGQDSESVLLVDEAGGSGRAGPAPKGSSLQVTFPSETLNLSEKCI", "assay": "Prostanoid EP4 receptor activation, functional assay", "assay_type": "cell-based", "settings": "150 μM"}, "5-LO": {"target": "T1, 5-LO (Homo sapiens, UniProt P09917)", "T1 sequence (P09917 1-674)": "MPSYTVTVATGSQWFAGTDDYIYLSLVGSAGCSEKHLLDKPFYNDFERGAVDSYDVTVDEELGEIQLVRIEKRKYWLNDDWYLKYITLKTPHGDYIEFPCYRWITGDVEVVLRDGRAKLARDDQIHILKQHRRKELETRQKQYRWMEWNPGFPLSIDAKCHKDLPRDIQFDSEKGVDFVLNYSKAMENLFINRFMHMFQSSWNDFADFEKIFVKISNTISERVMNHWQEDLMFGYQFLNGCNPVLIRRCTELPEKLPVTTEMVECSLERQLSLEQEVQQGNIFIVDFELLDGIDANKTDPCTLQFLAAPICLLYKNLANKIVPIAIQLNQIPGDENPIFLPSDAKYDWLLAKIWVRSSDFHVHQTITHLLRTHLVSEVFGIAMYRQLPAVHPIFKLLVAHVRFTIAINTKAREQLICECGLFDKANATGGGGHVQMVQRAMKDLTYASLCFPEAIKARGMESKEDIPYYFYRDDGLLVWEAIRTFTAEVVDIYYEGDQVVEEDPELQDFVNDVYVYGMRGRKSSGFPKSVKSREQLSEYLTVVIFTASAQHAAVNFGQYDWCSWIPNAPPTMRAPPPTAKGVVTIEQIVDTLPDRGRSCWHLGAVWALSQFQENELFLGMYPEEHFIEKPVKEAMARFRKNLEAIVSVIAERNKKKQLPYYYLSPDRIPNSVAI", "assay": "Cell-free activity assay of human recombinant 5-LO", "assay_type": "biochemical", "design": "made in house; host or cells: E. coli (BL21), plasmid pT3-5-LO", "experimental": "E. coli(BL21) was transformed with pT3-5-LO plasmid, and recombinant 5-LO protein was expressed at 30° C. as described.^34 Cells were lysed in 50 mM triethanolamine/HCl pH 8.0, 5 mM EDTA, 1 mM phenylmethanesulphonyl fluoride, soybean trypsin inhibitor (60 μg/mL), and lysozyme (1 mg/mL), homogenized by sonication (3×15 s), and centrifuged at 40,000×g for 20 min at 4° C. The 40,000×g supernatant (S40) was applied to an ATP-agarose column to partially purify 5-LO as described.^70 Aliquots of semi-purified 5-LO (0.5 μg) were diluted with 1 mL ice-cold PBS containing 1 mM EDTA. Samples were pre-incubated with the test compound or vehicle (0.1% DMSO) with or without Triton X-100 and/or 1 mM DTT, as indicated. After 10 min at 4° C., samples were pre-warmed for 30 s at 37° C., and 2 mM CaCl2 plus the indicated concentrations of arachidonic acid (AA) were added to start the formation of 5-LO products. After 10 min, the reaction was stopped by addition of one volume of ice-cold methanol, and the formed 5-LO products were analyzed by RP-HPLC as described.^71 5-LO products include the all-trans isomers of LTB4 (tr-LTB4 isomers) as well as 5(S)-hydroperoxy-6-trans-8,11,14-cis-eicosatetraenoic acid (5-HPETE) and its corresponding alcohol 5(S)-hydroxy-6-trans-8,11,14-cis-eicosatetraenoic acid (5-HETE). For phosphatidylcholine competition assays (3 or 30 μg/ml PC) samples were pre-incubated on ice with β-lapachone with or without 1 mM DDT or vehicle (0.1% DMSO) for 10 minutes. After addition of 2 mM CaCl2) and 20 μM AA the incubation was continued for 10 minutes at 37° C. and after that stopped with methanol.\nData are expressed as mean±S.E.M. IC50 values were calculated from averaged measurements at 6 different concentrations of the compound by nonlinear regression using GraphPad Prism software (San Diego, Calif.) one site binding competition. Statistical evaluation of the data was performed by one-way ANOVA followed by a Tukey-Kramer post-hoc test for multiple comparisons respectively. A p value<0.05 (*) was considered significant."}}, "note": "Like-named read-outs stand apart in the source and are kept apart here."}
{"smiles": "CC1(C)CCC2=C(O1)c1ccccc1C(=O)C2=O", "note": "[Compound 1, 3,4-dihydro-2,2-dimethyl-2H-naphtho[1,2-b]pyran-5,6-dione]", "values": [{"measurement": "EP4 activation", "setting": "EP4", "value": 53, "unit": "%"}, {"measurement": "IC50", "setting": "5-LO; 3 μg/mL phosphatidylcholine, n=3, read-out: IC50 (3 μg/mL, PC), competition assay with phosphatidylcholine", "value": 100, "unit": "nM"}, {"measurement": "IC50", "setting": "5-LO; 30 μg/mL phosphatidylcholine, n=3, read-out: IC50 (30 μg/mL, PC), competition assay with phosphatidylcholine", "value": 1000, "unit": "nM"}, {"measurement": "IC50", "setting": "5-LO; 1 mM DTT, 0.01% Triton X100, n=3, read-out: IC50 (with Triton X100), inhibition of 5-LO", "value": 90, "unit": "nM"}, {"measurement": "IC50", "setting": "5-LO; 1 mM DTT, no Triton X100, n=3, read-out: IC50 (without Triton X100), inhibition of 5-LO", "value": 120, "unit": "nM"}, {"measurement": "IC50", "setting": "5-LO; 1 mM dithiothreitol (DTT), n=3, read-out: IC50 (with DTT), inhibition of 5-LO in a cell-free assay", "value": 240, "unit": "nM"}, {"measurement": "IC50", "setting": "5-LO; absence of DTT, n=3, read-out: IC50 (without DTT), inhibition of 5-LO in a cell-free assay", "value": "> 30000", "unit": "nM"}, {"measurement": "Effect of arachidonic acid concentration on potency", "setting": "5-LO; arachidonic acid 2.5-40 μM", "value": "only to minor alterations of the potency"}, {"measurement": "5-LO modulation in absence of dithiothreitol", "setting": "5-LO; cell-free, no DTT, up to 30 μM", "value": "negligible 5-LO modulation"}, {"measurement": "5-LO activity after wash-out", "setting": "5-LO; wash-out of compound", "value": "could be reinstated upon wash-out"}]}
